ChEMBL document CHEMBL4138146, “A Schmidt rearrangement-mediated synthesis of novel tetrahydro-benzo[1,4]diazepin-5-ones as potential anticancer and antiprotozoal agents” (Eur J Med Chem, 2017)

Experiments:
Assay type in all cases: functional
CCRF-CEM = assay: Growth inhibition of human CCRF-CEM cells incubated for 48 hrs by sulforhodamine B assay
HL-60(TB) = assay: Growth inhibition of human HL-60(TB) cells incubated for 48 hrs by sulforhodamine B assay; settings: HL-60, 48 h
K562 = assay: Growth inhibition of human K562 cells incubated for 48 hrs by sulforhodamine B assay; settings: K562, 48 h
RPMI-8226 = assay: Growth inhibition of human RPMI8226 cells incubated for 48 hrs by sulforhodamine B assay; settings: RPMI-8226, 48 h; for CC50: read-out: LC50 (the source's name)
SR = assay: Growth inhibition of human SR cells incubated for 48 hrs by sulforhodamine B assay
A549 = assay: Growth inhibition of human A549/ATCC cells incubated for 48 hrs by sulforhodamine B assay; settings: A549, 48 h
EKVX = assay: Growth inhibition of human EKVX cells incubated for 48 hrs by sulforhodamine B assay
HOP-62 = assay: Growth inhibition of human HOP62 cells incubated for 48 hrs by sulforhodamine B assay; settings: HOP-62, 48 h
HOP-92 = assay: Growth inhibition of human HOP92 cells incubated for 48 hrs by sulforhodamine B assay; settings: HOP-92, 48 h
NCI-H23 = assay: Growth inhibition of human NCI-H23 cells incubated for 48 hrs by sulforhodamine B assay; settings: NCI-H23, 48 h
NCI-H322M = assay: Growth inhibition of human NCI-H322M cells incubated for 48 hrs by sulforhodamine B assay
NCI-H460 = assay: Growth inhibition of human NCI-H460 cells incubated for 48 hrs by sulforhodamine B assay; settings: NCI-H460, 48 h
NCI-H522 = assay: Growth inhibition of human NCI-H522 cells incubated for 48 hrs by sulforhodamine B assay; settings: NCI-H522, 48 h; for CC50: read-out: LC50 (the source's name)
COLO 205 = assay: Growth inhibition of human COLO205 cells incubated for 48 hrs by sulforhodamine B assay; settings: COLO 205, 48 h
HCT-116 = assay: Growth inhibition of human HCT116 cells incubated for 48 hrs by sulforhodamine B assay; settings: HCT-116, 48 h
HT-29 = assay: Growth inhibition of human HT-29 cells incubated for 48 hrs by sulforhodamine B assay; settings: HT-29, 48 h
SW-620 = assay: Growth inhibition of human SW620 cells incubated for 48 hrs by sulforhodamine B assay; settings: SW-620, 48 h
SF-295 = assay: Growth inhibition of human SF295 cells incubated for 48 hrs by sulforhodamine B assay; settings: SF-295, 48 h
SF-539 = assay: Growth inhibition of human SF539 cells incubated for 48 hrs by sulforhodamine B assay; settings: SF-539, 48 h
SNB-75 = assay: Growth inhibition of human SNB75 cells incubated for 48 hrs by sulforhodamine B assay; settings: SNB-75, 48 h; for CC50: read-out: LC50 (the source's name)
LOX IMVI = assay: Growth inhibition of human LOXIMVI cells incubated for 48 hrs by sulforhodamine B assay
M14 = assay: Growth inhibition of human M14 cells incubated for 48 hrs by sulforhodamine B assay; settings: M14, 48 h
MDA-MB-435 = assay: Growth inhibition of human MDA-MB-435 cells incubated for 48 hrs by sulforhodamine B assay; settings: MDA-MB-435, 48 h
SK-MEL-28 = assay: Growth inhibition of human SK-MEL-28 cells incubated for 48 hrs by sulforhodamine B assay; settings: SK-MEL-28, 48 h; for CC50: read-out: LC50 (the source's name)
UACC-257 = assay: Growth inhibition of human UACC257 cells incubated for 48 hrs by sulforhodamine B assay; settings: UACC-257, 48 h; for CC50: read-out: LC50 (the source's name)
IGROV-1 = assay: Growth inhibition of human IGROV1 cells incubated for 48 hrs by sulforhodamine B assay; settings: IGROV-1, 48 h; for CC50: read-out: LC50 (the source's name)
OVCAR-3 = assay: Growth inhibition of human OVCAR3 cells incubated for 48 hrs by sulforhodamine B assay; settings: OVCAR-3, 48 h
NCI/ADR-RES = assay: Growth inhibition of human NCI/ADR-RES cells incubated for 48 hrs by sulforhodamine B assay; settings: for CC50: read-out: LC50 (the source's name)
A498 = assay: Growth inhibition of human A498 cells incubated for 48 hrs by sulforhodamine B assay; settings: A498, 48 h; for CC50: read-out: LC50 (the source's name)
ACHN = assay: Growth inhibition of human ACHN cells incubated for 48 hrs by sulforhodamine B assay; settings: for CC50: read-out: LC50 (the source's name)
CAKI-1 = assay: Growth inhibition of human Caki1 cells incubated for 48 hrs by sulforhodamine B assay; settings: CAKI-1, 48 h; for CC50: read-out: LC50 (the source's name)
RXF 393 = assay: Growth inhibition of human RXF393 cells incubated for 48 hrs by sulforhodamine B assay; settings: RXF 393, 48 h
SN12C = assay: Growth inhibition of human SN12C cells incubated for 48 hrs by sulforhodamine B assay
UO-31 = assay: Growth inhibition of human UO31 cells incubated for 48 hrs by sulforhodamine B assay; settings: UO-31, 48 h
PC-3 = assay: Growth inhibition of human PC3 cells incubated for 48 hrs by sulforhodamine B assay; settings: PC-3, 48 h
DU-145 = assay: Growth inhibition of human DU145 cells incubated for 48 hrs by sulforhodamine B assay; settings: DU-145, 48 h; for CC50: read-out: LC50 (the source's name)
MDA-MB-231 = assay: Growth inhibition of human MDA-MB-231 cells incubated for 48 hrs by sulforhodamine B assay; settings: MDA-MB-231, 48 h
T47D = assay: Growth inhibition of human T47D cells incubated for 48 hrs by sulforhodamine B assay
[1] = read-out: LC50 (the source's name)

## COc1cccc2c1C(=O)c1c(O)c3c(c(O)c1C2=O)C[C@@](O)(C(=O)CO)C[C@@H]3O[C@H]1C[C@H](N)[C@H](O)[C@H](C)O1 [DOXORUBICIN]
CCRF-CEM
  GI50: 0.08 µM
HL-60(TB)
  GI50: 0.12 µM
K562
  GI50: 0.19 µM
RPMI-8226
  GI50: 0.08 µM
  CC50: 100 µM
SR
  GI50: 0.03 µM
A549
  GI50: 0.06 µM
EKVX
  GI50: 0.41 µM
HOP-62
  GI50: 0.07 µM
HOP-92
  GI50: 0.1 µM
NCI-H23
  GI50: 0.15 µM
NCI-H322M
  GI50: 0.54 µM
NCI-H460
  GI50: 0.02 µM
NCI-H522
  GI50: 0.03 µM
  CC50: 2.8 µM
COLO 205
  GI50: 0.18 µM
HCT-116
  GI50: 0.08 µM
HT-29
  GI50: 0.12 µM
SW-620
  GI50: 0.09 µM
SF-295
  GI50: 0.1 µM
SF-539
  GI50: 0.12 µM
SNB-75
  GI50: 0.07 µM
  CC50: 3.3 µM
LOX IMVI
  GI50: 0.07 µM
M14
  GI50: 0.18 µM
MDA-MB-435
  GI50: 0.25 µM
SK-MEL-28
  GI50: 0.08 µM
  CC50: 0.49 µM
UACC-257
  GI50: 0.12 µM
  CC50: 0.74 µM
IGROV-1
  GI50: 0.17 µM
  CC50: 100 µM
OVCAR-3
  GI50: 0.39 µM
NCI/ADR-RES
  CC50: 100 µM
A498
  GI50: 0.1 µM
  CC50: 1.9 µM
ACHN
  GI50: 0.08 µM
  CC50: 100 µM
CAKI-1
  GI50: 0.95 µM
  CC50: 100 µM
RXF 393
  GI50: 0.1 µM
SN12C
  GI50: 0.07 µM
UO-31
  GI50: 0.49 µM
PC-3
  GI50: 0.32 µM
DU-145
  GI50: 0.11 µM
  CC50: 100 µM
MDA-MB-231
  GI50: 0.51 µM
T47D
  GI50: 0.06 µM

## CCCCOc1nc2ccccc2cc1C1CNC(=O)c2ccccc2N1 (configuration not stated)
CCRF-CEM
  GI50: 2.95 µM
  LC50 (concentration killing 50% of cells): > 100 µM
  TGI: 24.9 µM
HL-60(TB)
  GI50: 0.047 µM
  LC50: 65.4 µM
  TGI: 0.384 µM
K562
  GI50: 0.84 µM
  LC50: > 100 µM
  TGI: 16.4 µM
RPMI-8226
  GI50: 2.86 µM
  TGI: 25.1 µM
  CC50: > 100 µM
SR
  GI50: 1.26 µM
  LC50: > 100 µM
  TGI: 10.7 µM
A549
  GI50: 3.64 µM
  LC50: 53 µM
  TGI: 14.5 µM
EKVX
  GI50: 4.76 µM
  TGI: 82.8 µM
EKVX; [1]
  CC50: > 100 µM
HOP-62
  GI50: 2.99 µM
  LC50: 76.7 µM
  TGI: 17.4 µM
HOP-92
  GI50: 1.92 µM
  TGI: 22.6 µM
HOP-92; [1]
  CC50: > 100 µM
NCI-H23
  GI50: 5.16 µM
  TGI: 36.8 µM
NCI-H23; [1]
  CC50: > 100 µM
NCI-H322M
  GI50: 4.5 µM
  TGI: 45.5 µM
NCI-H322M; [1]
  CC50: > 100 µM
NCI-H460
  GI50: 3.11 µM
  LC50 (concentration killing 50% of cells): 51.1 µM
  TGI: 11.6 µM
NCI-H522
  GI50: 2.39 µM
  TGI: 25.8 µM
  CC50: > 100 µM
COLO 205
  GI50: 2.19 µM
  TGI: 4.95 µM
COLO 205; [1]
  CC50: 23 µM
HCT-116
  GI50: 1.84 µM
  TGI: 6.26 µM
HCT-116; [1]
  CC50: 44.7 µM
HT-29
  GI50: 3.21 µM
  TGI: 11.1 µM
HT-29; [1]
  CC50: 67.7 µM
SW-620
  GI50: 2.19 µM
  TGI: 27.1 µM
SW-620; [1]
  CC50: > 100 µM
SF-295
  GI50: 1.4 µM
  TGI: 9.82 µM
SF-295; [1]
  CC50: 52.4 µM
SF-539
  GI50: 2.29 µM
  TGI: 7.47 µM
SF-539; [1]
  CC50: 44.9 µM
SNB-75
  GI50: 1.81 µM
  TGI: 13.7 µM
  CC50: 48.3 µM
LOX IMVI
  GI50: 2.9 µM
  TGI: 14.4 µM
LOX IMVI; [1]
  CC50: 47.3 µM
M14
  GI50: 1.54 µM
  TGI: 11.8 µM
M14; [1]
  CC50: 92.2 µM
MDA-MB-435
  GI50: 0.34 µM
  TGI: 1.33 µM
MDA-MB-435; [1]
  CC50: 7.6 µM
SK-MEL-28
  GI50: 5.89 µM
  TGI: 27.3 µM
  CC50: 86.1 µM
UACC-257
  GI50: 8.16 µM
  TGI: > 100 µM
  CC50: > 100 µM
IGROV-1
  GI50: 4.49 µM
  TGI: 23.9 µM
  CC50: 98.5 µM
OVCAR-3
  GI50: 1.31 µM
  TGI: 3.53 µM
OVCAR-3; [1]
  CC50: 9.4 µM
NCI/ADR-RES
  GI50: 1.74 µM
  TGI: 6.7 µM
  CC50: 97 µM
A498
  GI50: 0.39 µM
  TGI: 4.7 µM
  CC50: > 100 µM
ACHN
  GI50: 3.92 µM
  TGI: 17.1 µM
  CC50: 5.95 µM
CAKI-1
  GI50: 2.83 µM
  TGI: 34.4 µM
  CC50: > 100 µM
RXF 393
  GI50: 2.5 µM
  TGI: 12.1 µM
RXF 393; [1]
  CC50: 75.4 µM
SN12C
  GI50: 3.34 µM
  TGI: 18.2 µM
SN12C; [1]
  CC50: 90.6 µM
UO-31
  GI50: 2.41 µM
  TGI: 20.9 µM
UO-31; [1]
  CC50: 67.2 µM
PC-3
  GI50: 3.06 µM
  TGI: 13.4 µM
PC-3; [1]
  CC50: 66.9 µM
DU-145
  GI50: 3.16 µM
  TGI: 12.9 µM
  CC50: > 100 µM
MDA-MB-231
  GI50: 3.83 µM
  TGI: 20.9 µM
MDA-MB-231; [1]
  CC50: 90.3 µM
T47D
  GI50: 5.32 µM
  TGI: > 100 µM
T47D; [1]
  CC50: > 100 µM
